Assay results from US11191820B2, “Method for inducing early T memory response with short peptides anti-tumor vaccine” (OSE IMMUNOTHERAPEUTICS, priority 2015, dated 2021).

Experiments:
Assay type in all cases: in vivo, human
[1] = tested on: central memory T cells; assay: Cultured IFN-γ ELISPOT after 10-day in vitro stimulation of PBMC, phase 1/2 NSCLC trial of OSE-2101; set-up: key to net SFC of vaccine positive CTL responses: —, indicates SFC response did not meet criteria and vaccine response was negative; details: for No. Positive Responses: 6 NSCLC patients
Description: (§1) Clinical study design. Both trials were designed as phase 1/2, open label, multi-center, single dose, multiple administration studies to evaluate the safety and immunogenicity of the OSE-2101 immunotherapy. Patients were treated with 1 ml OSE-2101 every 3 weeks for a total of six doses. Each dose was administered subcutaneously in the same vicinity in the deltoid or upper thigh region, or at a contralateral site if local side-effects were observed. The study duration for each completed patient was 18 weeks. Clinical responses or patient survival were not measured in either phase 1/2 studies.
(§2) Clinical sample processing. Blood or leukapheresis product was obtained from patients at the pre-treatment, the Week 9 and Week 18 time points, 3 weeks after the third and sixth dose of OSE-2101 respectively. Peripheral blood mononuclear cells (PBMC) were isolated from samples within 24 hours of collection using a FICOLL-PAQUE density gradient and cryopreserved in containers designed to ensure optimal freezing (Mr. Frosty, Nalgene). For use, cells were rapidly thawed at 37° C. then transferred to human AB serum-containing medium for work-up.
(§3) Measurement of central T memory cells responses and T effector memory cells. The CTL responses in 16 total patients (10 colon and six NSCLC) were monitored for CTL responses against each epitope and against the wild-type epitope of epitopes analogs. For each patient, the pre-treatment, Week 9 and Week 18 time points were batch-tested in the same experiment to allow pre- versus post-treatment response comparison in the same experiment. Central T memory cells responses were measured using an IFN-γ enzyme-linked immunospot (cultured ELISPOT) assay following in vitro stimulation of PBMC for 10 days with each vaccine epitope. Briefly, PBMC from each time point were stimulated on day 0 with 10 μg/ml of each epitope individually in replicate in 48-well culture plates (2×10^6 PBMC/well). All cultures were fed with rIL-2 (Endogen, Woburn, Mass.; 10 U/ml final concentration) on days 1, 4 and 7. Ten days after initiation of culture, cells were harvested and tested for activity against specific vaccine peptides and corresponding wild-type peptides of vaccine analogs in the T memory ELISPOT assay. Cells were tested in Millipore IP 96-well plates pre-coated with mouse anti-human IFN-γ antibody (Mabtech USA, Cincinnati, Ohio). Five×10^4 cells and 1.25×10^4 cells from each culture were plated in triplicate wells together with 10^5 irradiated autologous PBMC and 10 μg/ml peptide. As a control, CTL were also tested against an irrelevant HLA-A2.1-binding HBV peptide. After 20 hours incubation, T memory ELISPOT plates were developed by performing sequential incubations with biotinylated anti-human IFN-γ antibody (Mabtech USA), Avidin-Peroxidase Complex (APC, Vector Laboratories, Burlingame, Calif.), and 3-amino-9-ethyl carbazole (AEC) substrate (Sigma Aldrich, St. Louis, Mo.). Spot-forming cells (SFC) were enumerated using a computer-assisted image analysis system (Zeiss KS ELISPOT Reader, Carl Zeiss MicroImaging, Thornwood, N.J.). Data is reported as the net SFC per 5×10^4 cells after subtracting spots induced with the irrelevant HBV peptide.

[2] = tested on: central memory T cells; assay: Cultured IFN-γ ELISPOT after 10-day in vitro stimulation of PBMC, phase 1/2 colon cancer trial of OSE-2101; set-up: key to net SFC of vaccine positive CTL responses: —, indicates SFC response did not meet criteria and vaccine response was negative
Description: as §1, §2, §3

[3] = tested on: central memory T cells; assay: Central memory T cell cultured ELISPOT, phase 2 trial in advanced NSCLC
Description: CTL Immune responses measured though cultured Elispot. The immunogenicity was measured in Phase 2 clinical trial on cryopreserved PBMC from each test sample were thawed in 5% human culture medium (RPMI-1640 medium with 25 mM HEPES, supplemented with 5% human AB serum, 4 mM L-glutamine, 0.5 mM sodium pyruvate, 0.1 mM MEM non-essential amino acids, 100 μg/ml streptomycin, and 100 U/ml penicillin) containing 30 μg/ml DNAase. After centrifugation for 5 minutes at 1200 rpm, the cell pellets were resuspended in 5% human culture medium and washed 2 times. For the central Memory T cell cultured ELISPOT assay, 2×10^6/ml PBMC were placed in replicate wells in a 48-well plates and stimulated for 10 days with 10 μg/ml of each peptide. As a positive control, PBMC were also stimulated with a pool of recall viral peptides. Human rIL2 (10 U/ml) was added to the peptide-stimulated cultures at day 1, day 4 and day 7. After 10 days the stimulated cells were harvested and plated at a concentration of 5×10^4/well. Assay wells also received irradiated autologous PBMC (1×10^5/well) and 10 μg/ml peptide, either the vaccine peptide, irrelevant peptide or positive control peptides. Cells stimulated in vitro with each analog epitope were also tested against the corresponding wild-type epitope.
Data analysis and acceptance criteria. Mean and standard deviation (SD) of spots in replicate wells were calculated in all assays by transferring raw ELISPOT data from each experiment to an Excel-based computer program. Positive vaccine-induced T-cell responses were determined according to the criteria described below.
Acceptance Criteria for peptide-Induced specific T-cell response through central memory T cells: The positive criteria for CTL responses used in the phase 2 trial was identical to the criteria in the phase 1/2 trials which was established prospectively after analyzing the variability of pre-treatment responses in patients against each vaccine epitope and the irrelevant HBV control epitope. A positive peptide-induced CTL/T memory response to a given epitope met all of the following conditions: 1) was greater than 5 SFC above the irrelevant epitope response, 2) was greater than the mean SFC of the irrelevant epitope response, plus 2 SD, and 3) was two-fold greater than the SFC response in the pre-vaccination sample from the same patient, plus 2 SD. The inclusion of “plus two standard deviations” was used to accommodate the assay variability and served to increase the criteria stringency.

Sequence: SMPPPGTRV [p53.149M2 A]
- No. Positive Responses ([1]; Week 9): 0
- No. Positive Responses ([1]; Week 18): 0
- net SFC of vaccine positive CTL responses ([1]; NSCLC patient 201, Week 9): —
- net SFC of vaccine positive CTL responses ([1]; NSCLC patient 201, Week 18): —
- net SFC of vaccine positive CTL responses ([1]; NSCLC patient 502, Week 9): —
- net SFC of vaccine positive CTL responses ([1]; NSCLC patient 502, Week 18): —
- net SFC of vaccine positive CTL responses ([1]; NSCLC patient 504, Week 9): —
- net SFC of vaccine positive CTL responses ([1]; NSCLC patient 504, Week 18): —
- net SFC of vaccine positive CTL responses ([1]; NSCLC patient 505, Week 9): —
- net SFC of vaccine positive CTL responses ([1]; NSCLC patient 505, Week 18): —
- net SFC of vaccine positive CTL responses ([1]; NSCLC patient 532, Week 9): —
- net SFC of vaccine positive CTL responses ([1]; NSCLC patient 532, Week 18): —
- net SFC of vaccine positive CTL responses ([1]; NSCLC patient 651, Week 9): —
- net SFC of vaccine positive CTL responses ([1]; NSCLC patient 651, Week 18): —
- Mean SFC ([2]; 10 colon patients, Week 9): 18.0 SFC per 50,000 cells
- net SFC of vaccine positive CTL responses ([2]; colon patient 551, Week 9): —
- net SFC of vaccine positive CTL responses ([2]; colon patient 551, Week 18): —
- net SFC of vaccine positive CTL responses ([2]; colon patient 601, Week 9): —
- net SFC of vaccine positive CTL responses ([2]; colon patient 601, Week 18): —
- net SFC of vaccine positive CTL responses ([2]; colon patient 602, Week 9): —
- net SFC of vaccine positive CTL responses ([2]; colon patient 602, Week 18): —
- net SFC of vaccine positive CTL responses ([2]; colon patient 603, Week 9): —
- net SFC of vaccine positive CTL responses ([2]; colon patient 603, Week 18): —
- net SFC of vaccine positive CTL responses ([2]; colon patient 604, Week 9): —
- net SFC of vaccine positive CTL responses ([2]; colon patient 604, Week 18): —
- net SFC of vaccine positive CTL responses ([2]; colon patient 605, Week 9): —
- net SFC of vaccine positive CTL responses ([2]; colon patient 605, Week 18): —
- net SFC of vaccine positive CTL responses ([2]; colon patient 606, Week 9): —
- net SFC of vaccine positive CTL responses ([2]; colon patient 606, Week 18): —
- net SFC of vaccine positive CTL responses ([2]; colon patient 607, Week 9): —
- net SFC of vaccine positive CTL responses ([2]; colon patient 607, Week 18): —
- net SFC of vaccine positive CTL responses ([2]; colon patient 608, Week 9): 18.0 SFC per 50,000 cells
- net SFC of vaccine positive CTL responses ([2]; colon patient 608, Week 18): —
- net SFC of vaccine positive CTL responses ([2]; colon patient 609, Week 9): —
- net SFC of vaccine positive CTL responses ([2]; colon patient 609, Week 18): —
- % of patients with positive CTL/central memory T cell response ([3]; phase 2, month 9): 0%
- patients with positive CTL/central memory T cell response / patients tested ([3]; phase 2, month 9): 0/7
- % of patients with positive CTL/central memory T cell response ([3]; phase 2, month 12): 0%
- patients with positive CTL/central memory T cell response / patients tested ([3]; phase 2, month 12): 0/4
- % of patients with positive CTL/central memory T cell response ([3]; phase 2, week 9): 9%
- patients with positive CTL/central memory T cell response / patients tested ([3]; phase 2, week 9): 1/11
- % of patients with positive CTL/central memory T cell response ([3]; phase 2, week 18): 0%
- patients with positive CTL/central memory T cell response / patients tested ([3]; phase 2, week 18): 0/11
- % of patients with positive CTL/central memory T cell response ([3]; phase 2, week 30): 0%
- patients with positive CTL/central memory T cell response / patients tested ([3]; phase 2, week 30): 0/6
